Source: ChEMBL document CHEMBL5543158, “Design of Evodiamine-Glucose Conjugates with Improved In Vivo Antitumor Activity” (J Med Chem, 2024)
Active and inactive are the calls of the source. The rule behind the calls is not given here.

Tests used:
HCT-116 [1] = test: Induction of apoptosis in human HCT116 cells assessed as accumulation of cells at S phase at 0.05 uM measured after 48 hrs by Annexin V-PI Flow cytometry assay (reference value: 31.25%); assay type: functional
[2] = Cmax in mouse at 10 mg/kg, ip measured upto 24 hrs; assay type: ADME, organism-based; conditions: in vivo
[3] = MRT (0 to t) in mouse at 10 mg/kg, ip measured upto 24 hrs; assay type: ADME, organism-based; conditions: in vivo
HCT-116 [4] = test: Induction of apoptosis in human HCT116 cells assessed as accumulation of cells at G1 phase at 0.2 uM measured after 48 hrs by Annexin V-PI Flow cytometry assay (reference value: 51.12%); assay type: functional
[5] = Half life in mouse at 10 mg/kg, ip measured upto 24 hrs; assay type: ADME, organism-based; conditions: in vivo
HCT-116 [6] = test: Induction of DNA damage in human HCT-116 cells assessed as increase in gamma-H2AX level at above 0.02 to 0.5 uM incubated for 12 hrs by Western blotting analysis; assay type: functional, cell-based; conditions: dose 0.02-0.5 µM
[7] = Plasma protein binding mouse plasma at 2 uM; assay type: ADME, cell-free; conditions: read-out: PPB (converted)
[8] = target: T1, DNA topoisomerase 1 (Homo sapiens) (UniProt P11387); test: Inhibition of DNA topoisomerase I (unknown origin) mediated supercoiled DNA relaxation activity at 100 uM by agarose gel electrophoresis analysis
T1 sequence (whole entry): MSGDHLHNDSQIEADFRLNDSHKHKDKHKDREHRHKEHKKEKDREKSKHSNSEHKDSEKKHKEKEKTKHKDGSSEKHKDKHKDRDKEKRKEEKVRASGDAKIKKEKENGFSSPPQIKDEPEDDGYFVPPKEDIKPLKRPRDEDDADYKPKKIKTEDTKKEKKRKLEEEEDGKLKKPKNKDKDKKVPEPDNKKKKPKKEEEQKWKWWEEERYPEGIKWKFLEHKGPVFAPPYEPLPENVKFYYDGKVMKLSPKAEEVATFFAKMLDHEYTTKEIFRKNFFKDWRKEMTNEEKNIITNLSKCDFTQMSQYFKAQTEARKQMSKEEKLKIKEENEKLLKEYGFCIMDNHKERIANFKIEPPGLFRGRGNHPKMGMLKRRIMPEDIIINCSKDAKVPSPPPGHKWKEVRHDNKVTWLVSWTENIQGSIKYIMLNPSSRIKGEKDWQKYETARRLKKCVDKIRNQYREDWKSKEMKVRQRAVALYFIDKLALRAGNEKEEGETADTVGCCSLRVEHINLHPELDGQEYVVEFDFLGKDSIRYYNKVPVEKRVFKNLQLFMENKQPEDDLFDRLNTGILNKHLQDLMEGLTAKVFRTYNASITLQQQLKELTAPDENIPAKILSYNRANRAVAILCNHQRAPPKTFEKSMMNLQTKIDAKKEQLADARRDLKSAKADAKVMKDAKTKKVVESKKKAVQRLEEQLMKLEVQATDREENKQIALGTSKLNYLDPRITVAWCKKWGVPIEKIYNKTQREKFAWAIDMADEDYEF

A549 = test: Antiproliferative activity against human A549 cells measured after 72 hrs by CCK-8 cells; assay type: functional, cell-based; conditions: A549, 72 h
HCT-116 [9] = test: Induction of apoptosis in human HCT116 cells assessed as accumulation of cells at G1 phase at 0.1 uM measured after 48 hrs by Annexin V-PI Flow cytometry assay (reference value: 51.12%); assay type: functional
[10] = AUC (0 to t)in mouse at 10 mg/kg, ip measured upto 24 hrs; assay type: ADME, organism-based; conditions: in vivo
[11] = Toxicity in mouse xenografted with human HCT-116 cells assessed as organ damage by measuring change in lungs at 10 mg/kg, ip twice a day administered 21 consecutive days; assay type: organism-based; conditions: in vivo
HCT-116 [12] = test: In vivo antitumor effect in human HCT-116 cells xenografted mouse model assessed as inhibition of tumor cell proliferation by measuring Ki67 at 10 to 20 mg/kg, ip twice a day administered 21 consecutive days by TUNEL based assay; assay type: functional, organism-based; conditions: dose 10-20 mg/kg
HCT-116 [13] = test: Pro-oxidant effect in human HCT-116 cells assessed as induction of reactive oxygen level (ROS) measured after 12 hrs by flow cytometry using the 2',7'-dichloro-fluorescein diacetate (DCFH-DA) fluorescent probe assay; assay type: functional, cell-based; conditions: dose 0.02-0.5 µM
HCT-116 [14] = test: In vivo antitumor effect in human HCT-116 cells xenografted mouse model assessed as tumor growth inhibition at 20 mg/kg, ip twice a day administered 21 consecutive days; assay type: functional; conditions: read-out: TGI
[15] = Unbound drug concentration in mouse plasma at 2 uM; assay type: ADME, cell-free
[16] = MRT (0 to t) in mouse at 20 mg/kg, ip measured upto 24 hrs; assay type: ADME, organism-based; conditions: in vivo
HCT-116 [17] = test: Induction of apoptosis in human HCT116 cells assessed as accumulation of cells at G2 phase at 0.2 uM measured after 48 hrs by Annexin V-PI Flow cytometry assay (reference value: 17.63%); assay type: functional
HCT-116 [18] = test: Antimigratory activity against human HCT116 cells assessed as inhibition of cell migration at 0.05 microM incubated for 24 hrs by wound healing assay relative to control; assay type: functional; parameters: scale not given: the % may be the effect or the level left
HCT-116 [19] = test: Pro-oxidant effect in human HCT-116 cells assessed as induction of reactive oxygen level (ROS) measured after 12 hrs by 2',7'-dichloro-fluorescein diacetate (DCFH-DA) fluorescent probe based flow cytometry; assay type: functional, cell-based; conditions: dose 0.02-0.5 µM
[20] = Toxicity in mouse xenografted with human HCT-116 cells assessed as organ damage by measuring change in kidney at 10 mg/kg, ip twice a day administered 21 consecutive days; assay type: organism-based; conditions: in vivo
HCT-116 [21] = test: In vivo antitumor effect in human HCT-116 cells xenografted mouse model assessed as induction of apoptosis in tumor at 10 to 20 mg/kg, ip twice a day administered 21 consecutive days by TUNEL based assay; assay type: functional, organism-based; conditions: dose 10-20 mg/kg
[22] = Tmax in mouse at 20 mg/kg, ip measured upto 24 hrs; assay type: ADME, organism-based; conditions: in vivo
[23] = Half life in mouse at 20 mg/kg, ip measured upto 24 hrs; assay type: ADME, organism-based; conditions: in vivo
HCT-116 [24] = test: Induction of apoptosis in 100 pmol GLUT1 siRNA treated human HCT-116 cells assessed as late apoptotic cells at 50 nM incubated for 48 hrs (reference value: 13.36%); assay type: functional
[25] = Toxicity in mouse xenografted with human HCT-116 cells assessed as organ damage by measuring change in spleen at 10 mg/kg, ip twice a day administered 21 consecutive days; assay type: organism-based; conditions: in vivo
HCT-116 [26] = test: Antimigratory activity against human HCT116 cells assessed as wound healing rate at 0.05 to 0.002 microM incubated for 24 hrs by wound healing assay (reference value: 62%); assay type: functional; conditions: dose 0.05-0.002 µM, at 0.002 to 0.05 µM

- Cmax [2]: 4630 ng/mL
- MRT last at 24 h [3]: 48.1 min
- half-life [5]: 145 min
- fraction unbound at 2 µM [7]: 0.101
- inhibition [8]: Active
- IC50 (A549): 64 nM
- AUC(0-t) at 24 h [10]: 4010 ng·h/mL
- Cp(f) [15]: 85.1 ng/mL
- MRT last at 24 h [16]: 59.5 min
- Tmax [22]: 30 min
- half-life [23]: 372 min
Structure (SMILES): CN1c2ccc(F)cc2C(=O)N2CCc3c([nH]c4ccc(O[C@@H]5O[C@H](CO)[C@@H](O)[C@H](O)[C@H]5O)cc34)[C@H]21
- Activity (HCT-116 [1]): 32%
- Activity (HCT-116 [4]): 1.56%
- Activity (HCT-116 [6]): Active
- Activity (HCT-116 [9]): 1.57%
- Activity [11]: Non-Toxic
- Activity (HCT-116 [12]): Active
- Activity (HCT-116 [13]): Dose-Dependent Effect
- inhibition in vivo at 20 mg/kg (HCT-116 [14]): 82%
- Activity (HCT-116 [17]): 92.85%
- Activity (HCT-116 [18]): 100%
- Activity (HCT-116 [19]): Dose-Dependent Effect
- Activity [20]: Non-Toxic
- Activity (HCT-116 [21]): Active
- Activity (HCT-116 [24]): 22.61%
- Activity [25]: Non-Toxic
- Activity (HCT-116 [26]): 1.1%
